Assays:
[1] = Effect of BSO on body weight; assay type: in vivo, mice; settings: 15 mM BSO in drinking water for eight weeks, weighed weekly
From the text: (§1) Animals: C57BL/6-Ins2^Akita/J (Akita) are an excellent model for Mutant-insulin Diabetes of Youth. Akita mice suffer from diabetes due to misfolded proinsulin, as the gene that codes for proinsulin (Ins2) is mutated. […] One male Akita mice was bred to female mice and the progeny were back-crossed to obtain enough number of heterozygous and wild-type male mice. The genotype of the mice was confirmed by using methods described previously. Briefly, the polymerase chain reaction product of the amplicons from the mutated region of the Ins 2 gene were subjected to restriction enzyme digestion and the products of the digestion were separated in agarose gels. Based on the number of fragments that resulted from the digestion, the genotypes of mice were confirmed. Only heterozygous male mice were used in the experiments. After two rounds of breeding, 12 heterozygous Akita and 12 wild-type Akita mice. After reaching 15-weeks of age, mice in each genotype were randomized into two groups of 6 animals each (n=6/group). All mice were given either 0 mM or 15 mM of D,L-Buthionine-(S,R)-sulfoximine (BSO, Toronto Research Chemicals Inc., ON, CA) administered in drinking water. […]
Experiment 1. […] Body weight was monitored every week.
(§2) Body weight (see FIG. 1) and food consumption (see FIG. 2) was monitored weekly. […]

glutathione = test: Effect of BSO on blood glutathione concentration; assay type: in vivo, mice; settings: after eight weeks on 15 mM BSO
From the text: Animals: C57BL/6-Ins2^Akita/J (Akita) are an excellent model for Mutant-insulin Diabetes of Youth. Akita mice suffer from diabetes due to misfolded proinsulin, as the gene that codes for proinsulin (Ins2) is mutated. […] One male Akita mice was bred to female mice and the progeny were back-crossed to obtain enough number of heterozygous and wild-type male mice. The genotype of the mice was confirmed by using methods described previously. Briefly, the polymerase chain reaction product of the amplicons from the mutated region of the Ins 2 gene were subjected to restriction enzyme digestion and the products of the digestion were separated in agarose gels. Based on the number of fragments that resulted from the digestion, the genotypes of mice were confirmed. Only heterozygous male mice were used in the experiments. After two rounds of breeding, 12 heterozygous Akita and 12 wild-type Akita mice. After reaching 15-weeks of age, mice in each genotype were randomized into two groups of 6 animals each (n=6/group). […] Glutathione was determined as described in experimental methods section. […] Glutathione was determined by a colorimetric method based on an enzymatic recycling method using 5,5′-dithiobis-(2-nitrobenzoic acid) as described earlier (Teitze et al). Using a standard curve with known concentrations the glutathione concentrations were determined and expressed as μg/mL blood.

[2] = Effect of BSO on food intake; assay type: in vivo, mice; settings: 15 mM BSO in drinking water for eight weeks, measured weekly
From the text: as §1
Experiment 2. […] Food intake was measured every week.
as §2

Wild-type and Akita mice [3] = test: Glucose tolerance test (GTT); assay type: in vivo; settings: 15 mM BSO, fifth week, 0.85 g/Kg D-glucose i.p., 6 h fast
From the text: (§3) Animals: C57BL/6-Ins2^Akita/J (Akita) are an excellent model for Mutant-insulin Diabetes of Youth. Akita mice suffer from diabetes due to misfolded proinsulin, as the gene that codes for proinsulin (Ins2) is mutated. […] One male Akita mice was bred to female mice and the progeny were back-crossed to obtain enough number of heterozygous and wild-type male mice. The genotype of the mice was confirmed by using methods described previously. Briefly, the polymerase chain reaction product of the amplicons from the mutated region of the Ins 2 gene were subjected to restriction enzyme digestion and the products of the digestion were separated in agarose gels. Based on the number of fragments that resulted from the digestion, the genotypes of mice were confirmed. Only heterozygous male mice were used in the experiments. After two rounds of breeding, 12 heterozygous Akita and 12 wild-type Akita mice. […] Body weight (see FIG. 1) and food consumption (see FIG. 2) was monitored weekly. […] Mice were intraperitoneally injected with 0.85 g/Kg body weight D-glucose and blood glucose was determined at specified intervals. […] Blood glucose was measured from tail clips using AlphaTrak-2 (Parsipanny, NJ,) glucometer and compatible strips. Blood glucose was measured at 0, 5, 15, 30, 60, 90, 120, 150, 180, and 210 min after injection. […]

Akita mice = test: Effect of BSO on fasting glucose; assay type: in vivo; settings: 15 mM BSO in drinking water, measured before and 1, 3, 4, 7, 8 weeks after, persisted throughout the study
From the text: Experimentation was done with Akita mice, which harbor a similar mutation in the proinsulin gene as human patients with MIDY, are used as a laboratory model for MIDY. […] The Akita strain is a monogenic model for phenotypes associated with type 1 diabetes. A spontaneous mutation in the insulin 2 gene leads to incorrect folding of the proinsulin protein producing toxicity in pancreatic beta-cells, reduced beta-cell mass and reduced insulin secretion. As a result, Akita mice suffer with glucose levels that are two to four-fold higher than healthy mice. […] Animals: C57BL/6-Ins2^Akita/J (Akita) are an excellent model for Mutant-insulin Diabetes of Youth. Akita mice suffer from diabetes due to misfolded proinsulin, as the gene that codes for proinsulin (Ins2) is mutated. […] One male Akita mice was bred to female mice and the progeny were back-crossed to obtain enough number of heterozygous and wild-type male mice. The genotype of the mice was confirmed by using methods described previously. […] Fasting glucose was determined using AlphaTrak-2 glucometer. […] Fasting (6 hr) blood glucose was determined from tail clips before starting the mice on BSO and 1, 3, 4, 7, and 8 weeks after treating with BSO. […]

Wild-type and Akita mice [4] = test: Insulin tolerance test (ITT); assay type: in vivo; settings: 15 mM BSO, third week, 1 U/Kg insulin i.p., 6 h fast
From the text: as §3, with “1 U/Kg” for “0.85 g/Kg”, “of insulin” for “D-glucose”

Q: Which “effect on body weight” value ([1]; Akita mice) does the source give for CCCCS(=N)(=O)CC[C@H](N)C(=O)O (mixture of isomers) [BSO, D,L-Buthionine-(S,R)-sulfoximine] here?
A: Its value is “lack of the effect”.

Q: And the “effect on body weight” value ([1]; wild-type mice)?
A: The value was “lack of the effect”.

Q: What about the “effect on blood glutathione concentration” value (glutathione; Akita mice) of the same compound?
A: Its value is “decreased”.

Q: What about the “effect on blood glutathione concentration” value (glutathione; wild-type mice) of the same compound?
A: Its value is “decreased”.

Q: What about the “effect on food intake” value ([2]; Akita mice) of the same compound?
A: The value was “does not affect”.

Q: What about the “effect on food intake” value ([2]; wild-type mice) of the same compound?
A: Its value is “does not affect”.

Q: What about the “glucose tolerance area under the curve decreased to” value (Wild-type and Akita mice [3]; Akita mice, baseline subtracted) of the same compound?
A: The value was “less than 50%”.

Q: What about the “effect on glucose tolerance area under the curve” value (Wild-type and Akita mice [3]; wild-type mice) of the same compound?
A: Its value is “did affect”.

Q: What about the “effect on fasting (6 hr) blood glucose” value (Akita mice) of the same compound?
A: Its value is “Decrease in glucose levels in Akita was evident within one week”.

Q: And the “effect on insulin tolerance area under the curve” value (Wild-type and Akita mice [4]; Akita mice)?
A: Its value is “No effect”.

Q: What about the “effect on insulin tolerance area under the curve” value (Wild-type and Akita mice [4]; wild-type mice) of the same compound?
A: The value was “No effect”.
